From patent US12465791B2, “Oral care composition” (Colgate-Palmolive Company, priority 2014, dated 2025)

Assays:
[1] = tested on: HSP 27; assay: HSP 27 production in scratched (damaged) human gingival tissue, level in cell supernatant; assay type: cell-based; conditions: for HSP27 concentration: scratched gingival tissue, arginine 50 ppm in culture medium, 37° C.
Experimental: A scratching protocol was used to damage and stress human gingival tissue (MatTek Corporation). Arginine, at a dose of 50 ppm was applied to the culture medium containing the tissue. The treated tissue was incubated at 37° C. to promote tissue healing. Cell supernatant was collected at various time points and the level of HSP 27 was measured.

[2] = tested on: Human keratinocytes; assay: Gap closure after scratch, migration of human keratinocytes; assay type: cell-based; conditions: 100 ppm Arginine in DMEM
Experimental: Human keratinocytes are cultured in DMEM medium supplemented with 10% FBS and 1% of antibiotic at 37° C. under a 5% CO2 atmosphere in petri dishes. Once the cells are 80-90% confluent, a scratch is made horizontally and a scratch is made vertically across the layer of cells. 1 ml of a test solution is added to the culture, and the cells are further incubated and monitored by photomicroscopy to evaluate the closure of the gap created by the scratches. The test solutions compared are 100 ppm Arginine in DMEM medium and untreated DMEM medium. The results are shown in Table 3 below, expressed as the average width of the gap as a percentage of the initial width of the gap (at 0 hours).
A second gap closure experiment is also performed which compares the results obtained when 100 ppm Arginine in DMEM is used against 1:500 v/v dilutions of commercial mouthwash formulations. In one test, a 0.8% w/v arginine mouthwash formulation is used. In a second test, a 0.075% w/v cetylpyridinium chloride (CPC) mouthwash formulation is used as a negative control. CPC is common antibacterial agent and preservative used in oral care products.

[3] = tested on: HSP-27; assay: Intracellular HSP 27 expression in scratched keratinocytes (ELISA); assay type: cell-based, human; conditions: for HSP-27, intracellular: scratched keratinocytes, 50 ppm Arginine
Experimental: Human keratinocytes are cultured in DMEM medium supplemented with 10% FBS and 1% of antibiotic at 37° C. under a 5% CO2 atmosphere in petri dishes. Once the cells are 80-90% confluent, a scratch is made horizontally and a scratch is made vertically across the layer of cells. […] […] The cell suspension is then homogenized with metal beads for 5 minutes and then analyzed for HSP27 using ELISA. In both untreated and arginine treated cells, scratching induces a strong increase in intracellular HSP-27 expression at one hour which declines at 4 hours. […] Without being bound by theory, Applicants believe that it is this initial burst of HSP-27 expression at the time of physical injury that contributes to improved wound healing.

N=C(N)NCCCC(N)C(=O)O (stereo not shown) [Arginine, 2-amino-5-guanidinopentanoic acid]
production of HSP 27 compared to the untreated, scratched tissue ([1]; arginine 50 ppm, at 1 hour and at 4 hours): significantly accelerated
HSP27 concentration ([1]; incubation time 0 hr): 22.78 ng/mL
HSP27 concentration ([1]; incubation time 1 hr): 218.76 ng/mL
HSP27 concentration ([1]; incubation time 4 hr): 359.72 ng/mL
speed of gap closure compared to the DMEM control [2]: significantly faster
% Gap Closure ([2]; 24 hr after scratch): 21%
% Gap Closure ([2]; 48 hr after scratch): 63%
% Gap Closure ([2]; 144 hr after scratch): 100%
% Gap Closure ([2]; second experiment, 48 hr): 75%
intracellular HSP-27 expression compared to untreated scratched cells ([3]; 50 ppm arginine): significantly higher expression
HSP-27, intracellular ([3]; time 0 hr): 17.11 ng/mL
HSP-27, intracellular ([3]; time 1 hr): 64.04 ng/mL
HSP-27, intracellular ([3]; time 2 hr as printed in the table): 45.12 ng/mL
